Reference: patent US20080009418A1, “Selective Inhibitors” (Alchemia LTD., priority 2004, published 2008)

What was measured:
Human neurokinin (NK1) = molecular target: T1, Human neurokinin (NK1) (Homo sapiens, UniProt P25103); assay: Radioligand binding, human neurokinin NK1 membranes, filtration, [125I]-Substance P; conditions: compound at 10 μM; for A8: inhibition of radioligand binding: [125I]-Substance P, human NK1 membranes
T1 construct: purchased Perkin Elmer Biosignal
Outline: (§1)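 Membranes from cloned human receptors were incubated with compound and radioligand for 1 hour at room temperature. Bound ligand was collected on 0.3% PEI-soaked filters, washed with cold 50 mM Tris-HCl pH 7.4, and counted by scintillation. Percent inhibition was computed against DMSO totals and reference-ligand nonspecific wells.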

Human melanocortin (MC5) = molecular target: T2, Human melanocortin (MC5) (Homo sapiens, UniProt P33032); assay: Radioligand binding, human melanocortin MC5 membranes, FlashPlate, [125I]-NDP-αMSH; conditions: compound at 10 μM; for A5: inhibition of radioligand binding: [125I]-NDP-αMSH, human MC5 membranes
T2 construct: purchased Perkin Elmer Biosignal
T2 sequence (P33032 whole entry): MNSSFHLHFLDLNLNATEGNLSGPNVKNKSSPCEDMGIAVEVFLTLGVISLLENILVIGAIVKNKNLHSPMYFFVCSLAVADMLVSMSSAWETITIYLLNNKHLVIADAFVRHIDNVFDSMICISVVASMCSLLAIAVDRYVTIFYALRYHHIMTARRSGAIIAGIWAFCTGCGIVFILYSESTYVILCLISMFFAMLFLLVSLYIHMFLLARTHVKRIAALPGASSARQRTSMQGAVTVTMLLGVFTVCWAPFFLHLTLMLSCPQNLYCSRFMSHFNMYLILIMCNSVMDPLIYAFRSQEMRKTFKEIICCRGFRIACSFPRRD
Outline: (§2)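 Cloned human receptor membranes were coated onto FlashPlate wells and incubated with radioligand and compound (added from a 0.5 mM DMSO daughter plate) for 1 hour at room temperature in the dark. Scintillation counting gave percent inhibition, with DMSO defining total and reference ligand defining non-specific binding.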

Human κ-Opioid (KOP) = molecular target: T3, Human κ-Opioid (KOP) (Homo sapiens, UniProt P41145); assay: Radioligand binding, human κ-opioid (KOP) membranes, filtration, [3H]-Diprenorphine; conditions: compound at 10 μM; for A2: inhibition of radioligand binding: [3H]-Diprenorphine, human KOP membranes
T3 construct: purchased Perkin Elmer Biosignal
T3 sequence (P41145 whole entry): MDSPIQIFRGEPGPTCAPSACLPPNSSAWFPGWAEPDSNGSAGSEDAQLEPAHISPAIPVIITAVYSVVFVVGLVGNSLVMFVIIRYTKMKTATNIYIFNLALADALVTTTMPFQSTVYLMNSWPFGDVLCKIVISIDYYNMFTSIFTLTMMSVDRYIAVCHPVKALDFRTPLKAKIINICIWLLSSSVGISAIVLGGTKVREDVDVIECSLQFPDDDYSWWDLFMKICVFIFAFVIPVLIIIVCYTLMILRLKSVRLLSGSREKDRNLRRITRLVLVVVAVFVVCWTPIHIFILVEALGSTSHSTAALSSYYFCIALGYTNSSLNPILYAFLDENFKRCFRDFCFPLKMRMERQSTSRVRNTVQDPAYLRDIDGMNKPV
Outline: as §1

Human δ-opioid (DOP) = molecular target: T4, Human δ-opioid (DOP) (Homo sapiens, UniProt P41143); assay: Radioligand binding, human δ-opioid (DOP) membranes, FlashPlate, [3H]-Bremazocine; conditions: compound at 10 μM; for A1: inhibition of radioligand binding: [3H]-Bremazocine, human DOP membranes
T4 construct: purchased Perkin Elmer Biosignal
T4 sequence (P41143 whole entry): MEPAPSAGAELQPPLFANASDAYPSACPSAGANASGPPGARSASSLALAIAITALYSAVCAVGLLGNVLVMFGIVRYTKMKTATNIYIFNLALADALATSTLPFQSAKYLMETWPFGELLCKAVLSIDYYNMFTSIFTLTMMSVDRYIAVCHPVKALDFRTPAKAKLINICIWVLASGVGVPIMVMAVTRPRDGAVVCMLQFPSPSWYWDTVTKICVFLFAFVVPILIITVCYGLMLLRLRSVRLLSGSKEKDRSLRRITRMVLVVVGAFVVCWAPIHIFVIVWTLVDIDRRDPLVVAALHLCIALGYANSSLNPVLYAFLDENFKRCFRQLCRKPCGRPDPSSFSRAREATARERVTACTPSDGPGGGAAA
Outline: as §2

Mouse urotensin (mUR2) = molecular target: T5, Mouse urotensin (mUR2) (Mus musculus, UniProt Q8VIH9); assay: Radioligand binding, mouse urotensin mUR2 membranes, FlashPlate, [125I]-Urotensin II; conditions: compound at 10 μM; for A11: inhibition of radioligand binding: [125I]-Urotensin II, mouse mUR2 membranes
T5 construct: purchased Perkin Elmer Biosignal
T5 sequence (Q8VIH9 1-385): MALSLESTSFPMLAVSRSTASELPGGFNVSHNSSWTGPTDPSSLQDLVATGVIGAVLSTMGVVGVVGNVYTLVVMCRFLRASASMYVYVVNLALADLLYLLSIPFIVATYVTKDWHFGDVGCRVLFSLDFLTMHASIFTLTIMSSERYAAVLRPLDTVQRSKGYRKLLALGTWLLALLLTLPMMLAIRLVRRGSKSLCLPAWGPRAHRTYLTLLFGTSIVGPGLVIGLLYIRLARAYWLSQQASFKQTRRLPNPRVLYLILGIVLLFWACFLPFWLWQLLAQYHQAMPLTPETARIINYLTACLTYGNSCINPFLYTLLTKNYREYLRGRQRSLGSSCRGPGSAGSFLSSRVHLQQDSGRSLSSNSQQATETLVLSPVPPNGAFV
Outline: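 Cloned mouse urotensin (mUR2) receptor membranes from Perkin Elmer Biosignal were immobilized in FlashPlate microplates using a proprietary coating. Each well got 19.5 μl buffer, then 0.5 μl of DMSO, reference ligand, or compound. Adding 5 μl of [125I]-Urotensin II, diluted to 5× final concentration in binding buffer, started binding. Plates were sealed with TopSeal-A and incubated 1 hour at room temperature in the dark. Wells were counted for 30 seconds each on a TopCount after a 60-second delay, and percentage inhibition was calculated.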

Human opioid (ORL1) = molecular target: T6, Human opioid (ORL1) (Homo sapiens, UniProt P41146); assay: Radioligand binding, human opioid ORL1 membranes, FlashPlate, [125I]-Nociceptin; conditions: compound at 10 μM, human ORL1 membranes; for A10: inhibition of radioligand binding: [125I]-Nociceptin
T6 construct: purchased Perkin Elmer Biosignal
T6 sequence (P41146 whole entry): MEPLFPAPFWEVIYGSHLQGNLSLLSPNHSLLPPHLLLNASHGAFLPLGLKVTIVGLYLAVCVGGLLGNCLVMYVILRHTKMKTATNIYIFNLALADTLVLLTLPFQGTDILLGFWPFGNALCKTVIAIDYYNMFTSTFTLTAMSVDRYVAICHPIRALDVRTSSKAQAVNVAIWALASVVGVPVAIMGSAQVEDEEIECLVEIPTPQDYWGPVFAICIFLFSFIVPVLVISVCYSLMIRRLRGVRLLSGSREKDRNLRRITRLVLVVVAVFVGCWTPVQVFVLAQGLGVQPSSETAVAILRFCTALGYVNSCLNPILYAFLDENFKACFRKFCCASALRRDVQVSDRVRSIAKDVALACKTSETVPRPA
Outline: as §2

Human Melanocortin (MC4) = molecular target: T7, Human Melanocortin (MC4) (Homo sapiens, UniProt P32245); assay: Radioligand binding, human melanocortin MC4 membranes, FlashPlate, [125I]-NDP-αMSH; conditions: compound at 10 μM; for A4: inhibition of radioligand binding: [125I]-NDP-αMSH, human MC4 membranes
T7 construct: purchased Perkin Elmer Biosignal
T7 sequence (P32245 whole entry): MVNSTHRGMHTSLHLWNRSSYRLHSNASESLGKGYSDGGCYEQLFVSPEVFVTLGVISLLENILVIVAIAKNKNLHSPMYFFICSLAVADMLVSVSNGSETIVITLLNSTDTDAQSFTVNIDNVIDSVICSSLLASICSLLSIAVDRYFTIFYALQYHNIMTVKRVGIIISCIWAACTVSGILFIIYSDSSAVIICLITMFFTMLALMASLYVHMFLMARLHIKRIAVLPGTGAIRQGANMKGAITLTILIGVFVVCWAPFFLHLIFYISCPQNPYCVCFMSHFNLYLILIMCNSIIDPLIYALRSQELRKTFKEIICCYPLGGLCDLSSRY
Outline: as §2

[1] = molecular target: T8, Human melanin-concentrating hormone (MCH1) (Homo sapiens, UniProt Q99705); assay: Radioligand binding, human melanin-concentrating hormone MCH1 membranes, FlashPlate, [125I]-S36057; conditions: compound at 10 μM; for A6: inhibition of radioligand binding: [125I]-S36057, human MCH1 membranes
T8 construct: purchased Perkin Elmer Biosignal
T8 sequence (Q99705 whole entry): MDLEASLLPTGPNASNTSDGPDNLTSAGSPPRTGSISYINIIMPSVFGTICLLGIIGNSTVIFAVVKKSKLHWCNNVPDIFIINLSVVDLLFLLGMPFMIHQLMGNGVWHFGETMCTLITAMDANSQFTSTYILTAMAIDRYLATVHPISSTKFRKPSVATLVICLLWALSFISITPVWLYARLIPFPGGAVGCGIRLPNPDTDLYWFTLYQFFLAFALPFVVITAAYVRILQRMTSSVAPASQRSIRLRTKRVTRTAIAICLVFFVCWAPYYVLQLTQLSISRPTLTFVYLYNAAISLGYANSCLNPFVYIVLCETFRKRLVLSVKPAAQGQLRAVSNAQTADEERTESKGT
Outline: as §2

Human μ-opioid (MOP) = molecular target: T9, Human μ-opioid (MOP) (Homo sapiens, UniProt P35372); assay: Radioligand binding, human μ-opioid (MOP) membranes, FlashPlate, [3H]-Naloxone; conditions: compound at 10 μM; for A7: inhibition of radioligand binding: [3H]-Naloxone, human MOP membranes
T9 construct: purchased Perkin Elmer Biosignal
T9 sequence (P35372 whole entry): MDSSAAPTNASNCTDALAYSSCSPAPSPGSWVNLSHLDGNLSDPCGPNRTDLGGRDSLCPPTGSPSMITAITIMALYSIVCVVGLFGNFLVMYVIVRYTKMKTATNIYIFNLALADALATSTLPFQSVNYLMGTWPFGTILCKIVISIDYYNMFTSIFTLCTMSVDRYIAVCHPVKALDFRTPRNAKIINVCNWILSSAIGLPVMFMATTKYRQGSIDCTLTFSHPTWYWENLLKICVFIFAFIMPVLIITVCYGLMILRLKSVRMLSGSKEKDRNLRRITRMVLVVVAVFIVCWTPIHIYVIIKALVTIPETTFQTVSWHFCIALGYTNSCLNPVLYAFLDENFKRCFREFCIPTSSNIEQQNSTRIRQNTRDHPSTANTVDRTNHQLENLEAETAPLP
Outline: as §2

[2] = molecular target: T10, Human neuropeptide Y (NPY-Y1) (Homo sapiens, UniProt P25929); assay: Radioligand binding, human neuropeptide Y NPY-Y1 membranes, FlashPlate, [125I]-PYY; conditions: compound at 10 μM, human NPY-Y1 membranes; for A9: inhibition of radioligand binding: [125I]-PYY
T10 construct: purchased Perkin Elmer Biosignal
T10 sequence (P25929 1-384): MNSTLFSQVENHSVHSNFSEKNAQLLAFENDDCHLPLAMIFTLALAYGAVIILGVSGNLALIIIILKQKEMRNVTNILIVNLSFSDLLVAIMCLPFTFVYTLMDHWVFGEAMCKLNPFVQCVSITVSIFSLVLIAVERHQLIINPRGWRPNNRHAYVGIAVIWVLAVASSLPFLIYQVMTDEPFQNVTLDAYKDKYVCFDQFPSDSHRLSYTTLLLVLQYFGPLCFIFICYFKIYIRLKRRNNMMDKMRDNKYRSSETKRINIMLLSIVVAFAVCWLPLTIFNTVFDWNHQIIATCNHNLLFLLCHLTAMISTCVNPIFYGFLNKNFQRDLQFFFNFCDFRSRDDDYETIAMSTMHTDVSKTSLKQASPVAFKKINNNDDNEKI
Outline: as §2

Human Melanocortin (MC3) = molecular target: T11, Human Melanocortin (MC3) (Homo sapiens, UniProt P41968); assay: Radioligand binding, human melanocortin MC3 membranes, FlashPlate, [125I]-NDP-αMSH; conditions: compound at 10 μM; for A3: inhibition of radioligand binding: [125I]-NDP-αMSH, human MC3 membranes
T11 construct: purchased Perkin Elmer Biosignal
T11 sequence (P41968 whole entry): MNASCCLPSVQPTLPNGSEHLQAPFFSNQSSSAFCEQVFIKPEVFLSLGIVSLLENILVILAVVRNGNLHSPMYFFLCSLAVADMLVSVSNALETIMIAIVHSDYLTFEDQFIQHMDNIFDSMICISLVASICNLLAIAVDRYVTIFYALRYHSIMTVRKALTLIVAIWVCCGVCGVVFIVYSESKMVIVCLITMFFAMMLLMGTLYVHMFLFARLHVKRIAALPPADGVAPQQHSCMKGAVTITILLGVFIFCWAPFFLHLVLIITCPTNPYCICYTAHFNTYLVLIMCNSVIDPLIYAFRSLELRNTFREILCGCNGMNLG
Outline: as §2

T1 sequence (P25103 whole entry): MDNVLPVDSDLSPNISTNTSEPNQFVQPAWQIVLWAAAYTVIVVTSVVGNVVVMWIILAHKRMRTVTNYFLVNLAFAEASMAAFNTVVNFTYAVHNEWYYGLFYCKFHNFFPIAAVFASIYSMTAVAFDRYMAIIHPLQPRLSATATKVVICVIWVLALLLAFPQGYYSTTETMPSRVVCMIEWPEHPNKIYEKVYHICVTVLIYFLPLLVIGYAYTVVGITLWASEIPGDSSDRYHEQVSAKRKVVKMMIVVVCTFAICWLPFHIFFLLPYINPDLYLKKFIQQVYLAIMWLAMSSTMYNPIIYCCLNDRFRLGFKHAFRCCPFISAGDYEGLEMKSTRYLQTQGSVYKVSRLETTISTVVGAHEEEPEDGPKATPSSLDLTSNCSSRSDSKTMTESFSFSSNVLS

SMILES: COC[C@H]1OC(OCc2ccc3ccccc3c2)[C@H](NC(=O)CCCN)[C@@H](OCc2ccccc2)[C@@H]1O (stereo partly drawn) [compound 20]
- A8 radioligand binding inhibition (Human neurokinin (NK1); human neurokinin NK1 membranes): + (“+” indicates greater than 50% inhibition at 10 μM)
- A5 radioligand binding inhibition (Human melanocortin (MC5); human melanocortin MC5 membranes): − (“−” indicates less than 50% inhibition at 10 μM)
- A2 radioligand binding inhibition (Human κ-Opioid (KOP); human κ-opioid (KOP) membranes): − (“−” indicates less than 50% inhibition at 10 μM)
- A1 radioligand binding inhibition (Human δ-opioid (DOP); human δ-opioid (DOP) membranes): − (“−” indicates less than 50% inhibition at 10 μM)
- A11 radioligand binding inhibition (Mouse urotensin (mUR2); mouse urotensin mUR2 membranes): − (“−” indicates less than 50% inhibition at 10 μM)
- A10 radioligand binding inhibition (Human opioid (ORL1)): − (“−” indicates less than 50% inhibition at 10 μM)
- A4 radioligand binding inhibition (Human Melanocortin (MC4); human melanocortin MC4 membranes): − (“−” indicates less than 50% inhibition at 10 μM)
- A6 radioligand binding inhibition ([1]; human MCH1 membranes): − (“−” indicates less than 50% inhibition at 10 μM)
- A7 radioligand binding inhibition (Human μ-opioid (MOP); human μ-opioid (MOP) membranes): − (“−” indicates less than 50% inhibition at 10 μM)
- A9 radioligand binding inhibition [2]: − (“−” indicates less than 50% inhibition at 10 μM)
- A3 radioligand binding inhibition (Human Melanocortin (MC3); human melanocortin MC3 membranes): − (“−” indicates less than 50% inhibition at 10 μM)

SMILES: NCCC(=O)N[C@H]1C(OCc2ccc3ccccc3c2)O[C@H](COCc2ccc(Cl)cc2)[C@@H](O)[C@@H]1OCc1ccc2ccccc2c1 (stereo partly drawn) [compound 447]
- A8: inhibition of radioligand binding (Human neurokinin (NK1)): + (“+” indicates greater than 50% inhibition at 10 μM)
- A5: inhibition of radioligand binding (Human melanocortin (MC5)): + (“+” indicates greater than 50% inhibition at 10 μM)
- A2: inhibition of radioligand binding (Human κ-Opioid (KOP)): − (“−” indicates less than 50% inhibition at 10 μM)
- A1: inhibition of radioligand binding (Human δ-opioid (DOP)): − (“−” indicates less than 50% inhibition at 10 μM)
- A11: inhibition of radioligand binding (Mouse urotensin (mUR2)): − (“−” indicates less than 50% inhibition at 10 μM)
- A10: inhibition of radioligand binding (Human opioid (ORL1)): − (“−” indicates less than 50% inhibition at 10 μM)
- A4: inhibition of radioligand binding (Human Melanocortin (MC4); 10 µM): + (“+” indicates greater than 50% inhibition at 10 μM)
- A6: inhibition of radioligand binding ([1]; 10 µM): + (“+” indicates greater than 50% inhibition at 10 μM)
- A7: inhibition of radioligand binding (Human μ-opioid (MOP)): − (“−” indicates less than 50% inhibition at 10 μM)
- A9: inhibition of radioligand binding [2]: − (“−” indicates less than 50% inhibition at 10 μM)
- A3: inhibition of radioligand binding (Human Melanocortin (MC3); 10 µM): + (“+” indicates greater than 50% inhibition at 10 μM)

SMILES: NCCC(=O)NC1C(OCc2ccc3ccccc3c2)OC(COCc2ccc3ccccc3c2)C(O)C1OCc1ccccc1 (stereo not drawn) [compound 387]
- A8: inhibition of radioligand binding (Human neurokinin (NK1)): + (“+” indicates greater than 50% inhibition at 10 μM)
- A5: inhibition of radioligand binding (Human melanocortin (MC5)): + (“+” indicates greater than 50% inhibition at 10 μM)
- A2: inhibition of radioligand binding (Human κ-Opioid (KOP)): − (“−” indicates less than 50% inhibition at 10 μM)
- A1: inhibition of radioligand binding (Human δ-opioid (DOP)): − (“−” indicates less than 50% inhibition at 10 μM)
- A11: inhibition of radioligand binding (Mouse urotensin (mUR2)): − (“−” indicates less than 50% inhibition at 10 μM)
- A10: inhibition of radioligand binding (Human opioid (ORL1)): − (“−” indicates less than 50% inhibition at 10 μM)
- A4: inhibition of radioligand binding (Human Melanocortin (MC4)): + (“+” indicates greater than 50% inhibition at 10 μM)
- A6: inhibition of radioligand binding [1]: − (“−” indicates less than 50% inhibition at 10 μM)
- A7: inhibition of radioligand binding (Human μ-opioid (MOP)): − (“−” indicates less than 50% inhibition at 10 μM)
- A9: inhibition of radioligand binding [2]: − (“−” indicates less than 50% inhibition at 10 μM)
- A3: inhibition of radioligand binding (Human Melanocortin (MC3)): + (“+” indicates greater than 50% inhibition at 10 μM)
